Results reported in US20230233569A1 (Revolution Medicines, Inc., priority 2020, published 2023).
Like-named read-outs stand apart in the source and are kept apart here.

Columns and labels:
[1] = test system: Capan-1 (K-Ras G12V); experiment: CellTiter-Glo cell viability assay, 5-day treatment; type: cell-based; settings: Homo sapiens, CAPAN-1, 120 h, 5-day treatment; read-out: Capan-1 Cell Viability assay data (K-Ras G12V, IC50)
How it was run: (§1)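 Seeded cells received test compound by direct dispensing. On day 5 the plates sat at room temperature approximately 30 minutes, then luminescence was measured. Data were normalized to DMSO and curve-fitted with four parameters.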

[2] = test system: NCI-H358 (K-Ras G12C); experiment: as above; type: cell-based; settings: Homo sapiens, NCI-H358, 120 h, 5-day treatment; read-out: H358 Cell Viability assay data (K-Ras G12C, IC50)
How it was run: as §1

[3] = biological target: KRAS G12C (Homo sapiens, UniProt P01116+P62937, G12C); experiment: Disruption of BRAF RBD interaction with Ras (FRET / MOA assay, with Cyclophilin A); type: biochemical
How it was run: (§2)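 Measured via TR-FRET after 3 h at 25 °C with compound (30 μM top, threefold serial steps, ten concentrations) plus K-Ras, Cyclophilin A and BRAF RBD, followed by 1.5 h with anti-His europium (10 nM) and anti-GST allophycocyanin (50 nM). Signal loss versus DMSO gave IC50.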

[4] = biological target: KRAS G12D (Homo sapiens, UniProt P01116+P62937, G12D); experiment: as above; type: biochemical
How it was run: as §2

[5] = biological target: KRAS G12S (Homo sapiens, UniProt P01116+P62937, G12S); experiment: as above; type: biochemical
How it was run: as §2

[6] = biological target: KRAS G12V (Homo sapiens, UniProt P01116+P62937, G12V); experiment: as above; type: biochemical
How it was run: as §2

[7] = biological target: KRAS G13C (Homo sapiens, UniProt P01116+P62937, G13C); experiment: as above; type: biochemical
How it was run: as §2

[8] = biological target: KRAS G13D (Homo sapiens, UniProt P01116+P62937, G13D); experiment: as above; type: biochemical
How it was run: as §2

[9] = biological target: KRAS WT (Homo sapiens, UniProt P01116+P62937); experiment: as above; type: biochemical
How it was run: as §2

[10] = biological target: NRAS G12C (Homo sapiens, UniProt P01111+P62937, G12C); experiment: as above; type: biochemical
[11] = read-out: KRAS G12C FRET data, IC50
[12] = read-out: KRAS G12D FRET data, IC50
[13] = read-out: KRAS G12S FRET data, IC50
[14] = KRAS G12V, read-out: KRAS G12V FRET data IC50
[15] = read-out: KRAS G13C FRET data, IC50
[16] = KRAS G13D, read-out: KRAS G13D FRET data IC50
[17] = KRAS WT, read-out: KRAS WT FRET data IC50
[18] = NRAS G12C, read-out: NRAS G12C FRET data IC50
[19] = KRAS G12V FRET data IC50, KRAS G12V
[20] = KRAS G13D FRET data IC50, KRAS G13D
[21] = KRAS WT FRET data IC50, KRAS WT
[22] = NRAS G12C FRET data IC50, NRAS G12C

Sequence of KRAS WT (P01116 1-169 isoform P01116-2 limits assumed): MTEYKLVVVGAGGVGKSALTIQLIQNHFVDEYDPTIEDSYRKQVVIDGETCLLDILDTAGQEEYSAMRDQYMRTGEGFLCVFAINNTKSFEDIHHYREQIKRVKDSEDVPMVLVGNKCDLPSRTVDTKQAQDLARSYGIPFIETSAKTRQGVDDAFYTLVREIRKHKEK
Sequence of KRAS WT (P62937 whole entry): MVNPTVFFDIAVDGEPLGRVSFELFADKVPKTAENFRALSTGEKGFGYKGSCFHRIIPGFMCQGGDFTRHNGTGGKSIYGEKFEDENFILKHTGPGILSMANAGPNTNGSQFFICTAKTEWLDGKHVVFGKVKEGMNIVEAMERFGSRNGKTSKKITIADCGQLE
Sequence of NRAS G12C (P01111 whole entry G12C): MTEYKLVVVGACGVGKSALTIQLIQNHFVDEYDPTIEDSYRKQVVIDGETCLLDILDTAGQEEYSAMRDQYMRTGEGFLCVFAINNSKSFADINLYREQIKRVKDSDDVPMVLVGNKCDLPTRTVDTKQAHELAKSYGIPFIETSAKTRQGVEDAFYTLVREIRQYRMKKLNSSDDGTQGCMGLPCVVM
Sequence of NRAS G12C (P62937 whole entry): as the sequence (P62937 whole entry) above
Sequence of KRAS G12V (P01116 1-169 isoform P01116-2 G12V limits assumed): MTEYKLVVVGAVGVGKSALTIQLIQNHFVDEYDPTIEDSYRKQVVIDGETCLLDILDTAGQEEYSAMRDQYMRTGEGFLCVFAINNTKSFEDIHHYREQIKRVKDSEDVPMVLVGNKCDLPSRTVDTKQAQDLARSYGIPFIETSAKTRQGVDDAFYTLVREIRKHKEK
Sequence of KRAS G12V (P62937 whole entry): as the sequence (P62937 whole entry) above
Sequence of KRAS G12S (P01116 1-169 isoform P01116-2 G12S limits assumed): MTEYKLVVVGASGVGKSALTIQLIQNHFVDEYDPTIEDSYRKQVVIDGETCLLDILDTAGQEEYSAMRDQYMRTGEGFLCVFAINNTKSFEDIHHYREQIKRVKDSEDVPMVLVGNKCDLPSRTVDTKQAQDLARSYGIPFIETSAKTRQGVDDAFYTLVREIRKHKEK
Sequence of KRAS G12S (P62937 whole entry): as the sequence (P62937 whole entry) above
Sequence of KRAS G13C (P01116 1-169 isoform P01116-2 G13C): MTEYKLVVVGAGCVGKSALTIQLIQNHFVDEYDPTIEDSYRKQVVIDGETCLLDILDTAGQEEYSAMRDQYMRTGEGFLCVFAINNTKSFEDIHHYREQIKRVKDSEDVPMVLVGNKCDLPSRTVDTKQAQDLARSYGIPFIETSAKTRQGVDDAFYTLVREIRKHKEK
Sequence of KRAS G13C (P62937 whole entry): as the sequence (P62937 whole entry) above
Sequence of KRAS G13D (P01116 1-169 isoform P01116-2 G13D limits assumed): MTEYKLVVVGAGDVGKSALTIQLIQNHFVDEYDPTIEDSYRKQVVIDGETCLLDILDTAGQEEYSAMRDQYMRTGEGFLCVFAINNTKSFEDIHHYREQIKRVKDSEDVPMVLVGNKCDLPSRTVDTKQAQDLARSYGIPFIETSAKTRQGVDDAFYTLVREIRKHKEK
Sequence of KRAS G13D (P62937 whole entry): as the sequence (P62937 whole entry) above
Sequence of KRAS G12D (P01116 1-169 isoform P01116-2 G12D limits assumed): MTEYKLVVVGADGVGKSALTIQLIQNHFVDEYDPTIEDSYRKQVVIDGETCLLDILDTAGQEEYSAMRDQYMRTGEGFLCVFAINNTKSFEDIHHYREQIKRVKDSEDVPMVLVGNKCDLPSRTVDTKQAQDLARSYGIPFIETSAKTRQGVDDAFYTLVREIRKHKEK
Sequence of KRAS G12D (P62937 whole entry): as the sequence (P62937 whole entry) above
Sequence of KRAS G12C (P01116 1-169 isoform P01116-2 G12C): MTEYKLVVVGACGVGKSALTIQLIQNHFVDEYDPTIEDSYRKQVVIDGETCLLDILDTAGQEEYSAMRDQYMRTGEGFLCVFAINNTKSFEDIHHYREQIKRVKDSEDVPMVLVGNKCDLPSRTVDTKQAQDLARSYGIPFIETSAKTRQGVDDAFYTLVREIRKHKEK
Sequence of KRAS G12C (P62937 whole entry): as the sequence (P62937 whole entry) above

IC50 [2]	IC50 [3, 11]	IC50 [4, 12]	IC50 [5, 13]	IC50 [6, 14]	IC50 [7, 15]	IC50 [8, 16]	IC50 [9, 17]	IC50 [10, 18]	IC50 ([3]; KRAS G12C FRET data, IC50)	IC50 ([4]; KRAS G12D FRET data, IC50)	IC50 ([5]; KRAS G12S FRET data, IC50)	IC50 [6, 19]	IC50 ([7]; KRAS G13C FRET data, IC50)	IC50 [8, 20]	IC50 [9, 21]	IC50 [10, 22]	Structure (SMILES)	IC50 [1]
0.01 to 0.1 µM	0.01 to 0.1 µM	0.01 to 0.1 µM	0.01 to 0.1 µM	0.1 to 1 µM	0.01 to 0.1 µM	0.01 to 0.1 µM	0.01 to 0.1 µM	0.01 to 0.1 µM	–	–	–	–	–	–	–	–	CCn1c(-c2cccnc2[C@H](C)OC)c2c3cc(ccc31)-c1cc(O)cc(c1)C[C@H](NC(=O)[C@H](C(C)C)N(C)C(=O)[C@H]1CCC[C@H]1N)C(=O)N1CCC[C@H](N1)C(=O)OCC(C)(C)C2 (atropisomer, axis not shown) [Example A131]	0.1 to 1 µM
0.1 to 1 µM	0.01 to 0.1 µM	0.1 to 1 µM	0.1 to 1 µM	0.1 to 1 µM	0.01 to 0.1 µM	0.1 to 1 µM	0.1 to 1 µM	0.1 to 1 µM	–	–	–	–	–	–	–	–	CCn1c(-c2cccnc2[C@H](C)OC)c2c3cc(ccc31)-c1cc(O)cc(c1)C[C@H](NC(=O)[C@H](C(C)C)N(C)C(=O)C1(O)CC1)C(=O)N1CCC[C@H](N1)C(=O)OCC(C)(C)C2 (atropisomer, axis not shown) [Example A132]	0.01 to 0.1 µM
0.1 to 1 µM	–	–	0.01 to 0.1 µM	0.01 to 0.1 µM	–	–	–	0.01 to 0.1 µM	–	–	–	–	–	–	–	–	CCn1c(-c2cccnc2[C@H](C)OC)c2c3cc(ccc31)-c1cc(O)cc(c1)C[C@H](NC(=O)[C@H](C(C)C)N(C)C(=O)C1(CN)CC1)C(=O)N1CCC[C@H](N1)C(=O)OCC(C)(C)C2 [Example A139]	0.1 to 1 µM
0.01 to 0.1 µM	–	–	–	0.01 to 0.1 µM	–	–	–	–	–	–	–	–	–	–	–	–	CCn1c(-c2cccnc2[C@H](C)OC)c2c3cc(ccc31)-c1cc(O)cc(c1)C[C@H](NC(=O)[C@H](C(C)C)N(C)C(=O)[C@H]1C[C@H]1F)C(=O)N1CCC[C@H](N1)C(=O)OCC(C)(C)C2 [Example A162]	0.01 to 0.1 µM
–	0.1 to 1 µM	> 10 µM	1 to 10 µM	1 to 10 µM	0.1 to 1 µM	1 to 10 µM	1 to 10 µM	1 to 10 µM	–	–	–	–	–	–	–	–	CCn1c(-c2cccnc2[C@H](C)OC)c2c3cc(ccc31)-c1cc(O)cc(c1)C[C@H](NC(=O)[C@@H]1C[C@H]1C)C(=O)N1CCC[C@H](N1)C(=O)OCC(C)(C)C2 [Example A183]	1 to 10 µM
–	0.01 to 0.1 µM	0.1 to 1 µM	0.1 to 1 µM	0.1 to 1 µM	0.01 to 0.1 µM	0.01 to 0.1 µM	0.1 to 1 µM	0.01 to 0.1 µM	–	–	–	–	–	–	–	–	C=CC(=O)N1CC[C@H](C(=O)Nc2ccccc2C(=O)N[C@H]2Cc3cc(O)cc(c3)-c3ccc4c(c3)c(c(-c3cnccc3COC)n4CC)CC(C)(C)COC(=O)[C@@H]3CCCN(N3)C2=O)C1 [Example A229]	1 to 10 µM
0.01 to 0.1 µM	–	–	–	–	–	–	–	0.01 to 0.1 µM	–	–	–	–	–	–	–	–	CCn1c(-c2cccnc2[C@H](C)OC)c2c3cc(ccc31)-c1cc(O)cc(c1)C[C@H](NC(=O)[C@H](C(C)C)N(C)C(=O)[C@H]1CCN(C(=O)[C@]3(C)CCCN3C)C1)C(=O)N1CCC[C@H](N1)C(=O)OCC(C)(C)C2 [Example A342]	0.1 to 1 µM

Continued, compound first:

Structure (SMILES)	IC50 [2]	IC50 [3, 11]	IC50 [4, 12]	IC50 [5, 13]	IC50 [6, 14]	IC50 [7, 15]	IC50 [8, 16]	IC50 [9, 17]	IC50 [10, 18]	IC50 ([3]; KRAS G12C FRET data, IC50)	IC50 ([4]; KRAS G12D FRET data, IC50)	IC50 ([5]; KRAS G12S FRET data, IC50)	IC50 [6, 19]	IC50 ([7]; KRAS G13C FRET data, IC50)	IC50 [8, 20]	IC50 [9, 21]	IC50 [10, 22]	IC50 [1]
CCn1c(-c2cccnc2[C@H](C)OC)c2c3cc(ccc31)-c1cc(O)cc(c1)C[C@H](NC(=O)[C@H](C(C)C)N(C)C(=O)[C@H]1CCN(C(=O)C(C)(C)N(C)C)C1)C(=O)N1CCC[C@H](N1)C(=O)OCC(C)(C)C2 (atropisomer, axis not shown) [Example A114]	0.01 to 0.1 µM	0.01 to 0.1 µM	0.1 to 1 µM	0.01 to 0.1 µM	0.01 to 0.1 µM	0.01 to 0.1 µM	0.01 to 0.1 µM	0.01 to 0.1 µM	0.01 to 0.1 µM	–	–	–	–	–	–	–	–	0.01 to 0.1 µM
CCn1c(-c2cccnc2[C@H](C)OC)c2c3cc(ccc31)-c1cc(O)cc(c1)C[C@H](NC(=O)[C@H](C(C)C)N(C)C(=O)[C@H]1CCN(C(=O)CNC)C1)C(=O)N1CCC[C@H](N1)C(=O)OCC(C)(C)C2 (atropisomer, axis not shown) [Example A120]	1 to 10 µM	0.01 to 0.1 µM	0.01 to 0.1 µM	0.01 to 0.1 µM	0.1 to 1 µM	0.1 to 1 µM	0.1 to 1 µM	0.1 to 1 µM	0.01 to 0.1 µM	–	–	–	–	–	–	–	–	> 10 µM
CCn1c(-c2cccnc2[C@H](C)OC)c2c3cc(ccc31)-c1cc(O)cc(c1)C[C@H](NC(=O)[C@H](C(C)C)N(C)C(=O)[C@H]1C[C@@H](O)C1)C(=O)N1CCC[C@H](N1)C(=O)OCC(C)(C)C2 (atropisomer, axis not shown) [Example A121]	0.1 to 1 µM	–	–	–	–	–	–	–	–	0.01 to 0.1 µM	0.1 to 1 µM	0.01 to 0.1 µM	0.01 to 0.1 µM	0.01 to 0.1 µM	0.01 to 0.1 µM	0.01 to 0.1 µM	0.01 to 0.1 µM	0.1 to 1 µM
CCn1c(-c2cccnc2[C@H](C)OC)c2c3cc(ccc31)-c1cc(O)cc(c1)C[C@H](NC(=O)[C@H](C(C)C)N(C)C(=O)[C@H]1CCN(C(=O)CN)C1)C(=O)N1CCC[C@H](N1)C(=O)OCC(C)(C)C2 [Example A1]	1 to 10 µM	0.01 to 0.1 µM	0.01 to 0.1 µM	0.01 to 0.1 µM	0.01 to 0.1 µM	0.01 to 0.1 µM	0.01 to 0.1 µM	0.01 to 0.1 µM	0.01 to 0.1 µM	–	–	–	–	–	–	–	–	1 to 10 µM
CCn1c(-c2cnccc2COC)c2c3cc(ccc31)-c1cc(O)cc(c1)C[C@H](NC(=O)[C@H](C(C)C)N(C)C(=O)[C@H]1CCN(C(=O)OC)C1)C(=O)N1CCC[C@H](N1)C(=O)OCC(C)(C)C2 [Example A11, methyl (3S)-3-{[(1S)-1-{[(8S,14S)-22-ethyl-4-hydroxy-21-[4-(methoxymethyl)pyridin-3-yl]-18,18-dimethyl-9,15-dioxo-16-oxa-10,22,28-triazapentacyclo[18.5.2.1^2,6.1^10,14.0^23,27]nonacosa-1(26),2,4,6(29),20,23(27),24-heptaen-8-yl]carbamoyl}-2-methylpropyl](methyl)carbamoyl}pyrrolidine-1-carboxylate]	0.1 to 1 µM	–	–	–	–	–	–	–	–	0.01 to 0.1 µM	1 to 10 µM	0.1 to 1 µM	0.01 to 0.1 µM	0.1 to 1 µM	0.1 to 1 µM	0.1 to 1 µM	0.01 to 0.1 µM	0.1 to 1 µM
CCn1c(-c2cnccc2COC)c2c3cc(ccc31)-c1cc(O)cc(c1)C[C@H](NC(=O)[C@H](C(C)C)N(C)C(=O)[C@H]1CCN(C=O)C1)C(=O)N1CCC[C@H](N1)C(=O)OCC(C)(C)C2 [Example A17, (2S)—N-[(8S,14S)-22-ethyl-4-hydroxy-21-[4-(methoxymethyl)pyridin-3-yl]-18,18-dimethyl-9,15-dioxo-16-oxa-10,22,28-triazapentacyclo[18.5.2.1^2,6.1^10,14.0^23,27]nonacosa-1(26),2,4,6(29),20,23(27),24-heptaen-8-yl]-2-{1-[(3S)-1-formylpyrrolidin-3-yl]-N-methylformamido}-3-methylbutanamide]	1 to 10 µM	–	–	–	–	–	–	–	–	0.01 to 0.1 µM	1 to 10 µM	0.1 to 1 µM	0.1 to 1 µM	0.1 to 1 µM	0.1 to 1 µM	0.1 to 1 µM	0.1 to 1 µM	1 to 10 µM
CCn1c(-c2cccnc2[C@H](C)OC)c2c3cc(ccc31)-c1cc(O)cc(c1)C[C@H](NC(=O)[C@H](C(C)C)N(C)C(=O)C1COC1)C(=O)N1CCC[C@H](N1)C(=O)OCC(C)(C)C2 [Example A18]	0.1 to 1 µM	0.01 to 0.1 µM	1 to 10 µM	0.1 to 1 µM	0.1 to 1 µM	0.1 to 1 µM	0.1 to 1 µM	0.1 to 1 µM	0.1 to 1 µM	–	–	–	–	–	–	–	–	0.1 to 1 µM
CCn1c(-c2cnccc2COC)c2c3cc(ccc31)-c1cc(O)cc(c1)C[C@H](NC(=O)[C@H](C(C)C)N(C)C(=O)C1C[C@@H]1C)C(=O)N1CCC[C@H](N1)C(=O)OCC(C)(C)C2 (stereo partly drawn) [Example A19]	0.1 to 1 µM	0.01 to 0.1 µM	1 to 10 µM	0.1 to 1 µM	0.1 to 1 µM	0.1 to 1 µM	0.1 to 1 µM	0.1 to 1 µM	0.1 to 1 µM	–	–	–	–	–	–	–	–	0.1 to 1 µM
